From patent publication US20080114005A1, “Fibrate Compounds Having Ppar Agonist Activity” (Dr. Reddy's Laboratories Limited, priority 2004, published 2008)

Row | melting point | SMILES
1 | 104 to 106 °C | CCCc1nn(C)c2c(=O)n(CCOc3ccc(SC(C)(C)C(=O)O)cc3)c(CC)nc12 [Example 44, 2-{4-[2-(5-Ethyl-1-methyl-7-oxo-3-propyl-1,7-dihydro-pyrazolo[4,3-d]pyrimidin-6-yl)-ethoxy]-phenylsulfanyl}-2-methyl-propionic acid]
2 | 123 to 125 °C | CCCc1nn(CC)c2c(=O)n(CCOc3ccc(SC(C)(C)C(=O)O)cc3)c(CC)nc12 [Example 50, 2-{4-[2-(1,5-Diethyl-7-oxo-3-propyl-1,7-dihydro-pyrazolo[4,3-d]pyrimidin-6-yl)-ethoxy]-phenylsulfanyl}-2-methyl-propionic acid]
3 | 85 to 87 °C | CCCc1nn(CC)c2c(=O)n(CCOc3ccc(SC(C)(C)C(=O)OCC)cc3)c(C)nc12 [Example 51, 2-{4-[2-(1-Ethyl-5-methyl-7-oxo-3-propyl-1,7-dihydro-pyrazolo[4,3-d]pyrimidin-6-yl)-ethoxy]-phenylsulfanyl}-2-methyl-propionic acid ethyl ester]
4 | 178 to 180 °C | CCCc1nn(CC)c2c(=O)n(CCOc3ccc(SC(C)(C)C(=O)O)cc3)c(C)nc12 [Example 52, 2-{4-[2-(1-Ethyl-5-methyl-7-oxo-3-propyl-1,7-dihydro-pyrazolo[4,3-d]pyrimidin-6-yl)-ethoxy]-phenylsulfanyl}-2-methyl-propionic acid]
5 | 155 to 157 °C | CCCc1nn(CC)c2c(=O)n(CCOc3ccc(SC(C)(CC)C(=O)O)cc3)c(C)nc12 (stereo not drawn) [Example 54, 2-{4-[2-(1-Ethyl-5-methyl-7-oxo-3-propyl-1,7-dihydro-pyrazolo[4,3-d]pyrimidin-6-yl)-ethoxy]-phenylsulfanyl}-2-methyl-butyric acid]
6 | 164 to 166 °C | CCOC(=O)C(C)(CC)Sc1ccc(OCCCn2c(C)nc3ccccc3c2=O)cc1 (stereo not drawn) [Example 55, 2-Methyl-2-{4-[3-(2-methyl-4-oxo-4H-quinazolin-3-yl)-propoxy]-phenylsulfanyl}-butyric acid ethyl ester]
7 | 130 to 132 °C | CCC(C)(Sc1ccc(OCCCn2c(C)nc3ccccc3c2=O)cc1)C(=O)O (stereo not drawn) [Example 56, 2-Methyl-2-{4-[3-(2-methyl-4-oxo-4H-quinazolin-3-yl)-propoxy]-phenylsulfanyl}-butyric acid]
8 | 98 to 100 °C | CCCc1nn(C)c2c(=O)n(CCOc3ccc(OC(C)(C)C(=O)OCC)cc3)c(C)nc12 [Example 59, 2-{4-[2-(1,5-Dimethyl-7-oxo-3-propyl-1,7-dihydro-pyrazolo[4,3-d]pyrimidin-6-yl)-ethoxy]-phenoxy}-2-methyl-propionic acid ethyl ester]
9 | 146 to 148 °C | CCCc1nn(C)c2c(=O)n(CCOc3ccc(OC(C)(C)C(=O)O)cc3)c(C)nc12 [Example 60, 2-{4-[2-(1,5-Dimethyl-7-oxo-3-propyl-1,7-dihydro-pyrazolo[4,3-d]pyrimidin-6-yl)-ethoxy]-phenoxy}-2-methyl-propionic acid]
10 | 158 to 160 °C | CCCc1nn(C)c2c(=O)n(CCCOc3ccc(OC(C)(C)C(=O)O)cc3)c(C)nc12 [Example 66, 2-{4-[3-(1,5-Dimethyl-7-oxo-3-propyl-1,7-dihydro-pyrazolo[4,3-d]pyrimidin-6-yl)-propoxy]-phenoxy}-2-methyl-propionic acid]
11 | 124 to 126 °C | CCCc1nn(C)c2c(=O)n(CCCOc3ccc(OC(C)(C)C(=O)O)cc3)c(CC)nc12 [Example 74, 2-{4-[3-(5-Ethyl-1-methyl-7-oxo-3-propyl-1,7-dihydro-pyrazolo[4,3-d]pyrimidin-6-yl)-propoxy]-phenoxy}-2-methyl-propionic acid]

Continued, molecule first:

Row | SMILES | melting point
12 | CCCc1nn(C)c2c(=O)n(CCNc3ccc(SC(C)(C)C(=O)O)cc3)c(CC)nc12 [Example 42, 2-{4-[2-(5-Ethyl-1-methyl-7-oxo-3-propyl-1,7-dihydro-pyrazolo[4,3-d]pyrimidin-6-yl)-ethylamino]-phenylsulfanyl}-2-methyl-propionic acid] | 187 to 189 °C
13 | CCCc1nn(CC)c2c(=O)n(CCNc3ccc(SC(C)(C)C(=O)OCC)cc3)c(CC)nc12 [Example 47, 2-{4-[2-(1,5-Diethyl-7-oxo-3-propyl-1,7-dihydro-pyrazolo[4,3-d]pyrimidin-6-yl)-ethylamino]-phenylsulfanyl}-2-methyl-propionic acid ethyl ester] | 85 to 87 °C
14 | CCCc1nn(CC)c2c(=O)n(CCNc3ccc(SC(C)(C)C(=O)O)cc3)c(CC)nc12 [Example 48, 2-{4-[2-(1,5-Diethyl-7-oxo-3-propyl-1,7-dihydro-pyrazolo[4,3-d]pyrimidin-6-yl)-ethylamino]-phenylsulfanyl}-2-methyl-propionic acid] | 143 to 145 °C
15 | CCCc1nn(C)c2c(=O)n(CCOc3ccc(OC(C)(C)C(=O)O)cc3)cnc12 [Example 58, 2-Methyl-2-{4-[2-(1-methyl-7-oxo-3-propyl-1,7-dihydro-pyrazolo[4,3-d]pyrimidin-6-yl)-ethoxy]-phenoxy}-propionic acid] | 144 to 146 °C
16 | CCCc1nn(C)c2c(=O)n(CCNc3ccc(OC(C)(C)C(=O)O)cc3)c(C)nc12 [Example 62, 2-{4-[2-(1,5-Dimethyl-7-oxo-3-propyl-1,7-dihydro-pyrazolo[4,3-d]pyrimidin-6-yl)-ethylamino]-phenoxy}-2-methyl-propionic acid] | 88 to 90 °C
17 | CCCc1nn(C)c2c(=O)n(CCCOc3ccc(OC(C)(C)C(=O)O)cc3)cnc12 [Example 64, 2-Methyl-2-{4-[3-(1-methyl-7-oxo-3-propyl-1,7-dihydro-pyrazolo[4,3-d]pyrimidin-6-yl)-propoxy]-phenoxy}-propionic acid] | 136 to 138 °C
18 | CCCc1nn(C)c2c(=O)n(CCCNc3ccc(OC(C)(C)C(=O)O)cc3)c(C)nc12 [Example 68, 2-{4-[3-(1,5-Dimethyl-7-oxo-3-propyl-1,7-dihydro-pyrazolo[4,3-d]pyrimidin-6-yl)-propylamino]-phenoxy}-2-methyl-propionic acid] | 104 to 106 °C
19 | CCCc1nn(C)c2c(=O)n(CCOc3ccc(OC(C)(C)C(=O)OCC)cc3)c(CC)nc12 [Example 69, 2-{4-[2-(5-Ethyl-1-methyl-7-oxo-3-propyl-1,7-dihydro-pyrazolo[4,3-d]pyrimidin-6-yl)-ethoxy]-phenoxy}-2-methyl-propionic acid ethyl ester] | 66 to 68 °C
20 | CCCc1nn(C)c2c(=O)n(CCOc3ccc(OC(C)(C)C(=O)O)cc3)c(CC)nc12 [Example 70, 2-{4-[2-(5-Ethyl-1-methyl-7-oxo-3-propyl-1,7-dihydro-pyrazolo[4,3-d]pyrimidin-6-yl)-ethoxy]-phenoxy}-2-methyl-propionic acid] | 108 to 110 °C
21 | CCCc1nn(C)c2c(=O)n(CCCNc3ccc(OC(C)(C)C(=O)O)cc3)c(CC)nc12 [Example 72, 2-{4-[3-(5-Ethyl-1-methyl-7-oxo-3-propyl-1,7-dihydro-pyrazolo[4,3-d]pyrimidin-6-yl)-propylamino]-phenoxy}-2-methyl-propionic acid] | 124 to 126 °C
22 | CCCc1nn(C)c2c(=O)n(CCNc3ccc(OC(C)(C)C(=O)O)cc3)c(CC)nc12 [Example 76, 2-{4-[2-(5-Ethyl-1-methyl-7-oxo-3-propyl-1,7-dihydro-pyrazolo[4,3-d]pyrimidin-6-yl)-ethylamino]-phenoxy}-2-methyl-propionic acid] | 136 to 138 °C
23 | CCCc1nn(C)c2c(=O)n(CCCc3cccc(OC(C)(CC)C(=O)O)c3)c(C)nc12 (stereo not drawn) [Example 87, 2-{3-[3-(1,5-Dimethyl-7-oxo-3-propyl-1,7-dihydro-pyrazolo[4,3-d]pyrimidin-6-yl)-propyl]-phenoxy}-2-methyl-butyric acid] | 136 to 138 °C
24 | CCCc1nn(C)c2c(=O)n(CCOc3ccc(OC4(C(=O)OCC)CCC4)cc3)c(C)nc12 [Example 90, 1-{4-[2-(1,5-Dimethyl-7-oxo-3-propyl-1,7-dihydro-pyrazolo[4,3-d]pyrimidin-6-yl)-ethoxy]-phenoxy}-cyclobutanecarboxylic acid ethyl ester] | 132 to 134 °C
25 | CCCc1nn(C)c2c(=O)n(CCOc3ccc(OC4(C(=O)O)CCC4)cc3)c(C)nc12 [Example 91, 1-{4-[2-(1,5-Dimethyl-7-oxo-3-propyl-1,7-dihydro-pyrazolo[4,3-d]pyrimidin-6-yl)-ethoxy]-phenoxy}-cyclobutanecarboxylic acid] | 188 to 190 °C
26 | CCCc1nn(CC)c2c(=O)n(CCOc3cccc(OC(C)(C)C(=O)O)c3)c(C)nc12 [Example 93, 2-{3-[2-(1-Ethyl-5-methyl-7-oxo-3-propyl-1,7-dihydro-pyrazolo[4,3-d]pyrimidin-6-yl)-ethoxy]-phenoxy}-2-methyl-propionic acid] | 147 to 149 °C
27 | CCCc1nn(C)c2c(=O)n(CCOc3cc(O[C@@](C)(CC)C(=O)O)ccc3Cl)c(C)nc12 [Example 106, S-(−)-2-{4-Chloro-3-[2-(1,5-dimethyl-7-oxo-3-propyl-1,7-dihydro-pyrazolo[4,3-d]pyrimidin-6-yl)-ethoxy]-phenoxy}-2-methyl-butyric acid] | 99 to 100 °C
